Reference: ChEMBL document CHEMBL1201862, “PubChem BioAssay data set” (2004)
The source made the active and inactive calls.

How the values were obtained:
[1] = mitochondrial function rescue without frataxin homolog – Friedreich's ataxia, plus single-dose screen, dose response (AID 1465); type: functional;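 also: yeast depleted of Yfh1p frataxin homolog grown on glycerol needing respiration; WST-1 tetrazolium dye reduction as measure of cellular dehydrogenase metabolic activity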
Leucine aminopeptidase = target: T1, Leucine aminopeptidase (Plasmodium falciparum 3D7, UniProt Q8IL11); assay: P. falciparum M17LAP inhibitors, primary screen, biochemical, fluorogenic H-Leu-NHMec substrate, 1536-well (AID 1619); type: functional
T1 sequence (Q8IL11 whole entry): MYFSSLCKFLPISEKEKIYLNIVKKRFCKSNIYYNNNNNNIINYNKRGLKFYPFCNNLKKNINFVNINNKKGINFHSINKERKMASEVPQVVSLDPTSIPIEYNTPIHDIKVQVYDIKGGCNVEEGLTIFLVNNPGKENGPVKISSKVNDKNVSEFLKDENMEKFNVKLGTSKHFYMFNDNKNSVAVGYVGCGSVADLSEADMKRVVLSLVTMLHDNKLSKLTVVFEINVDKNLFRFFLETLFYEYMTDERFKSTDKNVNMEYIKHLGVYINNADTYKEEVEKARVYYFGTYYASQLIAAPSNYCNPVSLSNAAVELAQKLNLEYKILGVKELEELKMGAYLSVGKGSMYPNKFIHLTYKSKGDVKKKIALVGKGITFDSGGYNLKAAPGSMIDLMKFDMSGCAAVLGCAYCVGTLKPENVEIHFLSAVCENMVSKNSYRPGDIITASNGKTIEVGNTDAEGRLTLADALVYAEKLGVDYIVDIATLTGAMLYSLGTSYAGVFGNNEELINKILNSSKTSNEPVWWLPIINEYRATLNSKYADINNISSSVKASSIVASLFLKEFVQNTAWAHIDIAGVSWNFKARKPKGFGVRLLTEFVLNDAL

[2] = target: Neuropeptide Y receptor type 2 (Homo sapiens, UniProt P49146); type: functional, cell-based;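 also: HEK293 cells expressing the receptor and a CNG channel; stimulus was NPY near EC95 followed by isoproterenol to raise cAMP; antagonist potency measured as restoring cAMP signal that NPY suppresses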
Chain of Neuropeptide Y receptor type 2 (P49146 whole entry): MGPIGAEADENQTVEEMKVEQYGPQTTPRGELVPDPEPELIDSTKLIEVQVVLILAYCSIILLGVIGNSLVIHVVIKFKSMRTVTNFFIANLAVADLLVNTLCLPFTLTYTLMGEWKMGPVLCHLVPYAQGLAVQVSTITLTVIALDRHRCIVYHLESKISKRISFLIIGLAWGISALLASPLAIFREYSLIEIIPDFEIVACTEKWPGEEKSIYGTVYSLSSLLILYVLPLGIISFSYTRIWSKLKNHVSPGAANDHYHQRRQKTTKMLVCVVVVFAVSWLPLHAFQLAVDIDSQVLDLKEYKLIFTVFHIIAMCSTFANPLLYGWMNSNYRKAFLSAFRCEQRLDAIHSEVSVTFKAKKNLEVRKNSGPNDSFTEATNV

[3] = target: Neuropeptide Y receptor type 1 (Homo sapiens, UniProt P25929); type: functional;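 also: HEK293 cells with a CNG channel challenged with NPY then isoproterenol; potency as antagonist that reverses NPY suppression of cAMP signal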
Chain of Neuropeptide Y receptor type 1 (P25929 whole entry): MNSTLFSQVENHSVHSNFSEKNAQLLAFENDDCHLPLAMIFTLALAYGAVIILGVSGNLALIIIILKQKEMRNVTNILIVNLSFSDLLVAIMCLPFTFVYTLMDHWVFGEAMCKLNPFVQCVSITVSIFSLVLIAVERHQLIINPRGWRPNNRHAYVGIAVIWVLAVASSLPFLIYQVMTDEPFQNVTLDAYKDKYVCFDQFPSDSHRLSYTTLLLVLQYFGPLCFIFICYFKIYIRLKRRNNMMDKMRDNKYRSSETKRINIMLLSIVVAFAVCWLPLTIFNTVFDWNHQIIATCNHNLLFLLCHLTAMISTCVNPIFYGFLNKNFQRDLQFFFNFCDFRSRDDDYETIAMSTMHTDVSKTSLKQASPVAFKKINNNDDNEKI

14-3-3 protein gamma = 14-3-3 protein gamma (Homo sapiens, UniProt P61981); assay: modulators of 14-3-3 gamma client binding – dose response (AID 711); type: functional
Chain of 14-3-3 protein gamma (P61981 whole entry): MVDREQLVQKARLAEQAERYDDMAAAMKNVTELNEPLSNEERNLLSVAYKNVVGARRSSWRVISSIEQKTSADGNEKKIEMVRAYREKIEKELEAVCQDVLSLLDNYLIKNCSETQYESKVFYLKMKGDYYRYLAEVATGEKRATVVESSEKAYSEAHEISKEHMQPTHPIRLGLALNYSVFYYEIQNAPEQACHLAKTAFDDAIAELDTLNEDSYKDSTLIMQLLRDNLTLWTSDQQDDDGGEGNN

H4 = assay: Luminescence Cell-Based Dose Response HTS to Identify Activators of 5'UTR Stem-Loop Driven Prion Protein mRNA Translation in H4 Neuroglioblastoma Cells. [Related pubchem assays: 1829 (Project Summary), 1814 (Primary HTS)]; type: functional; details: Homo sapiens
[4] = viability loss of HPDE-C7K cells – cell-based, fluorescence, HTS, primary screen (AID 431); type: functional; details: Homo sapiens
[5] = Luminescence Cell-Based Dose Response HTS to Identify Activators of Luciferase Translation or Activity in H4 […] Cells. [Related pubchem assays: 1829 (Project Summary), 1814 (Primary HTS)]; type: functional
[6] = HPDE-C7 pancreatic duct cell viability loss – fluorescence, HTS (AID 430); type: functional, cell-based; details: Homo sapiens
[7] = antiviral protection against BTV-induced cell death – arbovirus, BSR cells, confirmation (AID 1250); type: functional;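 also: protection from viral cytopathic effect measured as cell viability by ATP luminescence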
Ion channel NompC = Ion channel NompC (Danio rerio, UniProt Q7T1G6); assay: Fluorescence counterscreen assay for TRPML3 agonists: dose response cell-based high-throughput screening assay to identify agonists of the transient receptor potential channel N1 (TRPN1). [Related pubchem assays: 1526, 1424, 1448 ]; type: functional
Chain of Ion channel NompC (Q7T1G6 whole entry): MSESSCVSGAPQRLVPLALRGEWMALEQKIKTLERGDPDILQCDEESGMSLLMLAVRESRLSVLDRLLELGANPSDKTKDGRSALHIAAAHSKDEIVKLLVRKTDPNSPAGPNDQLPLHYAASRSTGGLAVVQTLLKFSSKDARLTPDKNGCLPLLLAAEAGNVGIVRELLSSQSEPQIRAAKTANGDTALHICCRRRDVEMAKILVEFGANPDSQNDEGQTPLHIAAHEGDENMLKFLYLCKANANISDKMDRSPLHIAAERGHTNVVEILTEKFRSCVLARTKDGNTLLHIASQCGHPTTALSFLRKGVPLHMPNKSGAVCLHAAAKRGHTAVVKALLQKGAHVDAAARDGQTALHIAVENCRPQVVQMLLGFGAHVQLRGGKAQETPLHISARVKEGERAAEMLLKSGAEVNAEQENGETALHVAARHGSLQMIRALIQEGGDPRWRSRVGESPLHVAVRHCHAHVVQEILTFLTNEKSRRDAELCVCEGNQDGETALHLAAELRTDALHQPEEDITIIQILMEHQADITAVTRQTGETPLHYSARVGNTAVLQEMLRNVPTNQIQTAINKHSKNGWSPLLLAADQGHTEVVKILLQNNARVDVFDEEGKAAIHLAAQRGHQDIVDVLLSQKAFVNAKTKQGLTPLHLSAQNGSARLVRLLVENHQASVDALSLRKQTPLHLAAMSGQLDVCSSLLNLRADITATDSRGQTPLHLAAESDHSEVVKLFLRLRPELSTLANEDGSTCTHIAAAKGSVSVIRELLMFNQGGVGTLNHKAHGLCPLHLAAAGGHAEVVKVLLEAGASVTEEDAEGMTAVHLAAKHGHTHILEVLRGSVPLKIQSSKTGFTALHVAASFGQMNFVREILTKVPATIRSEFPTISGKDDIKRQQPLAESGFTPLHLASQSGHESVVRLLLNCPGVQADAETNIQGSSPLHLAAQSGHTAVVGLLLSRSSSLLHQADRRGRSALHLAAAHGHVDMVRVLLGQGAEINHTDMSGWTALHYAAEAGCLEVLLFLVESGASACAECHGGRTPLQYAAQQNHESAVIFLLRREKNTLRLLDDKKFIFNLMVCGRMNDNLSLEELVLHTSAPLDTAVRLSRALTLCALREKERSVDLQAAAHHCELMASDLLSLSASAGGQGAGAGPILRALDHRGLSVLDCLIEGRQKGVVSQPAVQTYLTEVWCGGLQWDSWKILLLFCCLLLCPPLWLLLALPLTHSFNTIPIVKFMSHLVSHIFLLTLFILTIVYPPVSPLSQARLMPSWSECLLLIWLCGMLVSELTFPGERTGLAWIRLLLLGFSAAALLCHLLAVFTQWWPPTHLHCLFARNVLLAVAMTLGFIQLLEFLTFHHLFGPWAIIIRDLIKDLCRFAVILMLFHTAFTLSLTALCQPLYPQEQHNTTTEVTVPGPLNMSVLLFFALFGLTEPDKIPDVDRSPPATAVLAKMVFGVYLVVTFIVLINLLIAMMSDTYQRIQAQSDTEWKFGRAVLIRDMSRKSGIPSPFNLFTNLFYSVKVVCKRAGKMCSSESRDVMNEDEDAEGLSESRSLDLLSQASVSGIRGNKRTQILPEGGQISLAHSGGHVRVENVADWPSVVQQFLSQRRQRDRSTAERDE

Mucolipin-3 = Mucolipin-3 (Homo sapiens, UniProt Q8TDD5); assay: Dose response cell-based high-throughput screening assay for agonists of the transient receptor potential channel ML3 (TRPML3). [Related pubchem assays: 1526, 1424, 1448 ]; type: functional
Chain of Mucolipin-3 (Q8TDD5 whole entry): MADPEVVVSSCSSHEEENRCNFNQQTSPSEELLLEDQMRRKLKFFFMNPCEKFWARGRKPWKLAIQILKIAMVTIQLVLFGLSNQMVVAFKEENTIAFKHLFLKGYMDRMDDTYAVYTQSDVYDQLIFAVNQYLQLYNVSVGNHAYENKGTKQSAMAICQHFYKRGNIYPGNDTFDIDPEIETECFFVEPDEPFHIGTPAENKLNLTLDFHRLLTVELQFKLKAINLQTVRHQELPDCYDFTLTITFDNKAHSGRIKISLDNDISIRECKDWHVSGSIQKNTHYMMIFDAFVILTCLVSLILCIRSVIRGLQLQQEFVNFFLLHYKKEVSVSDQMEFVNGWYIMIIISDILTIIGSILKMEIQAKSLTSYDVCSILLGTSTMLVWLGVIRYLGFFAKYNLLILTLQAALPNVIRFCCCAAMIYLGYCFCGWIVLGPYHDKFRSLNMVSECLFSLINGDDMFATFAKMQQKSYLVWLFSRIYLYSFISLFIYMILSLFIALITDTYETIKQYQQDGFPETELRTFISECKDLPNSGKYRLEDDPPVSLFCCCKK

Which EC50 [1] does the source give for `N#C/C(=C\c1ccc(N2CCOCC2)o1)C(=O)N1CCOCC1` here?
Its EC50 is > 100 µM (active).

What about the IC50 (Leucine aminopeptidase) of the same molecule?
The IC50 was 99.7 µM (active).

For `Cc1cccc(NC(S)=NN=C(S)NCc2ccccc2)c1`, which IC50 [2] is on record?
The IC50 was > 35 µM (not active).

And the IC50 [3]?
Its IC50 is > 35 µM (not active).

What does the source list for `Cc1csc(NC(=O)CSc2nsc(SCC(=O)Nc3nc(C)cs3)c2C#N)n1`?
IC50 (14-3-3 protein gamma): > 50 µM (not active); EC50 (H4): > 120 µM (not active); EC50 [4]: 11 µM (active); EC50 [5]: 1.86 µM (active); EC50 [6]: 12.4 µM (active)

Which IC50 [7] does the source give for `Cc1ccc2cc(C3CC(c4ccco4)=NN3S(=O)(=O)c3ccccc3)c(Cl)nc2c1` (configuration not stated) here?
Its IC50 is 40.7 µM (active).

With `COC(=O)c1c(NC(=O)COC(=O)[C@@H](NS(=O)(=O)c2ccc(C)cc2)C(C)C)sc2c1CCC2` as the molecule, how does the EC50 (Ion channel NompC) read?
The EC50 was > 29.9 µM (not active).

And the EC50 (Mucolipin-3)?
The EC50 was 2.8 µM (active).
